target: SARS-CoV-2 Papain-like (PLpro) protease (Severe acute respiratory syndrome coronavirus 2, UniProt P0DTD1); assay: SARS-CoV-2 Papain-like (PLpro) protease biochemical enzyme inhibition assay (ubiquitin-fluorophore substrate, Ub-R110); details: Ub-R110 substrate; run in duplicate; read-out: PLpro IC50

Structure (SMILES) | IC50 [nM]
O=C(NCC#Cc1nccs1)C(=O)NCc1ccccc1C(=O)NC1(c2cc(-c3ccn(C(F)F)n3)cc(F)c2F)CC1 [Example 296] | < 100
N#CCNC(=O)C(=O)NCc1ccccc1C(=O)NC1(c2cc(-c3cn(-c4ccccn4)nn3)cc3ccccc23)CC1 [Example 427] | < 100
O=C(NCC#Cc1ncccc1OC(F)(F)F)C(=O)NCc1ccccc1C(=O)NC1(c2ccc3ccccc3c2)CC1 [Example 201] | < 100
C[C@@H](C#Cc1ccc(C#N)cc1F)NC(=O)C(=O)NCc1ccccc1C(=O)NC1(c2ccc3nn(C)cc3c2)CC1 [Example 98] | < 100
O=C(NCC#Cc1nccs1)C(=O)NCc1ccccc1C(=O)NC1(c2ccc3ccccc3c2)CC1 [Example 167] | < 100
O=C(NCC#Cc1nccs1)C(=O)NCc1ccccc1C(=O)NC1(c2cc(Cl)cc(-c3cnc(C4CC4)nc3)c2)CC1 [Example 83] | < 100
O=C(NCC#CBr)C(=O)NCc1ccccc1C(=O)NC1(c2cc(Br)cc3ccccc23)CC1 [Example 154] | < 100
C[C@@H](NC(=O)c1ccccc1CNC(=O)C(=O)NCC#N)c1cc(-c2ccoc2)cc(C(F)(F)F)c1 [Example 464] | < 100
C[C@@H](NC(=O)c1ccccc1CNC(=O)C(=O)NCC#N)c1cc(-c2ccco2)cc(C(F)(F)F)c1 [Example 467] | < 100
CN1CCC(n2cc(-c3cc(F)cc(C4(NC(=O)c5ccccc5CNC(=O)C(=O)NCC#Cc5ncco5)CC4)c3)cn2)CC1 [Example 257] | < 100
C#CCNC(=O)C(=O)NCc1ccccc1C(=O)NC1(c2cc(Cl)cc(-c3cnc(C4CC4)nc3)c2)CC1 [Example 73] | < 100
N#Cc1ccc(C#CCNC(=O)C(=O)NCc2ccccc2C(=O)NC2(c3ccc4ccccc4c3)CC2)cc1 [Example 171] | < 100
O=C(NCC#Cc1ncc(F)cc1F)C(=O)NCc1ccccc1C(=O)NC1(c2ccc3ccccc3c2)CC1 [Example 188] | < 100
O=C(NCC#Cc1ncc(F)cn1)C(=O)NCc1ccccc1C(=O)NC1(c2ccc3ccccc3c2)CC1 [Example 176] | < 100
C[C@@H](C#Cc1ccc(C#N)c(F)c1)NC(=O)C(=O)NCc1ccccc1C(=O)NC1(c2ccc3nn(C)cc3c2)CC1 [Example 106] | < 100
C#CCNC(=O)C(=O)NCc1ccccc1C(=O)NC1(c2cc(Cl)cc(-c3nnc(C)o3)c2)CC1 [Example 484] | < 100
CC(C)n1ccnc1C#CCNC(=O)C(=O)NCc1ccccc1C(=O)NC1(c2cc(F)cc(-c3cnn(C4CC4)c3)c2)CC1 [Example 277] | < 100
C[C@@H](C#Cc1nccs1)NC(=O)C(=O)NCc1ccccc1C(=O)NC1(c2ccc3c(cnn3C)c2)CC1 [Example 346] | < 100
Cc1cccnc1C#CCNC(=O)C(=O)NCc1ccccc1C(=O)NC1(c2cc(F)cc(-c3cn(C)nc3C)c2)CC1 [Example 260] | < 100
CNN(C)C(=O)/C=C/CNC(=O)C(=O)NCc1ccccc1C(=O)NC1(c2cccc3ccccc23)CC1 [Example 559] | 100 to 1000
COC(=O)Cn1cc(-c2cc(C3(NC(=O)c4ccccc4CNC(=O)C(=O)NCC#N)CC3)c3ccccc3c2)nn1 [Example 426] | < 100

tested on: SARS-CoV-2 replicon; assay: microbe, parasite or virus in culture; type: cell-based; details: Severe acute respiratory syndrome coronavirus 2, Huh-7

Structure (SMILES) | EC50 [nM]
O=C(NCC#Cc1nccs1)C(=O)NCc1ccccc1C(=O)NC1(c2cc(-c3ccn(C(F)F)n3)cc(F)c2F)CC1 [Example 296] | < 1000
N#CCNC(=O)C(=O)NCc1ccccc1C(=O)NC1(c2cc(-c3cn(-c4ccccn4)nn3)cc3ccccc23)CC1 [Example 427] | < 1000
O=C(NCC#Cc1ncccc1OC(F)(F)F)C(=O)NCc1ccccc1C(=O)NC1(c2ccc3ccccc3c2)CC1 [Example 201] | < 1000
C[C@@H](C#Cc1ccc(C#N)cc1F)NC(=O)C(=O)NCc1ccccc1C(=O)NC1(c2ccc3nn(C)cc3c2)CC1 [Example 98] | < 1000
O=C(NCC#Cc1nccs1)C(=O)NCc1ccccc1C(=O)NC1(c2ccc3ccccc3c2)CC1 [Example 167] | < 1000
O=C(NCC#Cc1nccs1)C(=O)NCc1ccccc1C(=O)NC1(c2cc(Cl)cc(-c3cnc(C4CC4)nc3)c2)CC1 [Example 83] | < 1000
O=C(NCC#CBr)C(=O)NCc1ccccc1C(=O)NC1(c2cc(Br)cc3ccccc23)CC1 [Example 154] | < 1000
C[C@@H](NC(=O)c1ccccc1CNC(=O)C(=O)NCC#N)c1cc(-c2ccoc2)cc(C(F)(F)F)c1 [Example 464] | 1000 to 10000
C[C@@H](NC(=O)c1ccccc1CNC(=O)C(=O)NCC#N)c1cc(-c2ccco2)cc(C(F)(F)F)c1 [Example 467] | < 1000
CN1CCC(n2cc(-c3cc(F)cc(C4(NC(=O)c5ccccc5CNC(=O)C(=O)NCC#Cc5ncco5)CC4)c3)cn2)CC1 [Example 257] | < 1000
C#CCNC(=O)C(=O)NCc1ccccc1C(=O)NC1(c2cc(Cl)cc(-c3cnc(C4CC4)nc3)c2)CC1 [Example 73] | < 1000
N#Cc1ccc(C#CCNC(=O)C(=O)NCc2ccccc2C(=O)NC2(c3ccc4ccccc4c3)CC2)cc1 [Example 171] | < 1000
O=C(NCC#Cc1ncc(F)cc1F)C(=O)NCc1ccccc1C(=O)NC1(c2ccc3ccccc3c2)CC1 [Example 188] | < 1000
O=C(NCC#Cc1ncc(F)cn1)C(=O)NCc1ccccc1C(=O)NC1(c2ccc3ccccc3c2)CC1 [Example 176] | < 1000
C[C@@H](C#Cc1ccc(C#N)c(F)c1)NC(=O)C(=O)NCc1ccccc1C(=O)NC1(c2ccc3nn(C)cc3c2)CC1 [Example 106] | < 1000
C#CCNC(=O)C(=O)NCc1ccccc1C(=O)NC1(c2cc(Cl)cc(-c3nnc(C)o3)c2)CC1 [Example 484] | < 1000
CC(C)n1ccnc1C#CCNC(=O)C(=O)NCc1ccccc1C(=O)NC1(c2cc(F)cc(-c3cnn(C4CC4)c3)c2)CC1 [Example 277] | < 1000
C[C@@H](C#Cc1nccs1)NC(=O)C(=O)NCc1ccccc1C(=O)NC1(c2ccc3c(cnn3C)c2)CC1 [Example 346] | < 1000
Cc1cccnc1C#CCNC(=O)C(=O)NCc1ccccc1C(=O)NC1(c2cc(F)cc(-c3cn(C)nc3C)c2)CC1 [Example 260] | < 1000
CNN(C)C(=O)/C=C/CNC(=O)C(=O)NCc1ccccc1C(=O)NC1(c2cccc3ccccc23)CC1 [Example 559] | 1000 to 10000
COC(=O)Cn1cc(-c2cc(C3(NC(=O)c4ccccc4CNC(=O)C(=O)NCC#N)CC3)c3ccccc3c2)nn1 [Example 426] | 1000 to 10000

From US20240327334A1, “Covalent Inhibitors As Antiviral Agents” (Enanta Pharmaceuticals, Inc., priority 2022, published 2024)
